# Assay results: US6951733B2, “Method for testing drug susceptibility of Mycobacterium tuberculosis” (priority 2000, dated 2005)
# Like-named read-outs stand apart in the source and are kept apart here.
# Tests used:
# [1] = tested on: 55 M. tuberculosis clinical isolates; assay type: cell-based
# [2] = tested on: 13 M. tuberculosis pan-susceptible strains; assay: MIC determination on HSTB agar, susceptible strains; assay type: cell-based; conditions: for MIC: Mycobacterium tuberculosis, HSTB agar
# [3] = tested on: 13 M. tuberculosis pan-susceptible strains; conditions: adopted for 7H11 agar; cited from earlier work
# [4] = strains Susceptible by the BACTEC 300 μg/ml
# [5] = strains Susceptible by the BACTEC 900 μg/ml
structure (smiles),measurement,setting,value
"NC(=O)c1cnccn1 [PZA, pyrazinamide]","Number of strains by the agar proportion method, 900 μg/ml Susceptible",[1]; [4],25
same,"Number of strains by the agar proportion method, 1200 μg/ml Susceptible",[1]; [4],25
same,"Number of strains by the agar proportion method, 900 μg/ml Susceptible",[1]; [5],26
same,"Number of strains by the agar proportion method, 1200 μg/ml Susceptible",[1]; [5],27
"NNC(=O)c1ccncc1 [INH, isoniazid]",MIC,"[2]; 0.2: 13 strains, read-out: MICs (mcg/ml) of INH for 13 Susceptible Strains, HSTB",0.2 µg/mL
same,MIC,"[2]; all 13 strains, read-out: MIC of INH",0.2 µg/mL
"CO[C@H]1/C=C/O[C@@]2(C)Oc3c(C)c(O)c4c(O)c(c(/C=N/N5CCN(C)CC5)c(O)c4c3C2=O)NC(=O)/C(C)=C\C=C\[C@H](C)[C@H](O)[C@@H](C)[C@@H](O)[C@@H](C)[C@H](OC(C)=O)[C@@H]1C [RMP, rifampin]",critical concentration of RMP,[2],2.0 µg/mL
same,critical concentration of RMP,[3],1.0 µg/mL
